Tests used:
Assay type in all cases: cell-based
MV-4-11 cells = assay: AML cell viability assay (RealTime-Glo); conditions: Homo sapiens, MV4-11; IC50 class; MV-4-11 cells, RealTime-Glo after 44 hrs of treatment (TABLE 3); read-out: Cell viability classification
CK1α [1] = target: T1, CK1α (Homo sapiens, UniProt P48729+Q96SW2); assay: CK1α degradation, flow cytometry in MV4-11 cells; set-up: CK1α levels were determined in MV-4-11 cells using Jess (Protein Simple); host or cells: MV-4-11; conditions: % reduction of CK1α compared to DMSO, MV4-11 cells at 316 nM for 16 hours, read-out: CK1α degradation classification
CK1α [2] = target: T1, CK1α; assay: CK1α HiBiT assay in CK1a_HiBiT_Jurkat cells; conditions: DC50 class, 16 hours, Nano-Glo HiBiT Lytic Detection, read-out: CK1α degradation classification
Method: CK1a_HiBiT_Jurkat cells were culture in RPMI 1640 medium (Gibco, 11875093) with 10% FBS under standard tissue culture conditions. Briefly, Compounds of the present disclosure was added to 30,000 cells in a white 96-well plate (9-point dose response, top concentration […], half-log serial dilution, final DMSO concentration 0.5%) and incubated for 16 hours. CK1a level was determined in along with the Nano-Glo HiBiT Lytic Detection system [Promega N3050] with final concentration of 1 x. The luminescence was normalized to that of DMSO-treated samples. DC50 values were obtained using three-parameter non-linear regressions using Prism (GraphPad). The compounds are classified based on DC50 values as follows. • A: DC50 is less than or equal to 1×10^−7; • B: DC50 is greater than 1×10^−7 & less than or equal to 1×10^−6; • C: DC50 is greater than 1×10^−6; • NA: not calculated (no activity detected, <25% viability reduction at 1 uM)

T1 sequence (P48729 whole entry): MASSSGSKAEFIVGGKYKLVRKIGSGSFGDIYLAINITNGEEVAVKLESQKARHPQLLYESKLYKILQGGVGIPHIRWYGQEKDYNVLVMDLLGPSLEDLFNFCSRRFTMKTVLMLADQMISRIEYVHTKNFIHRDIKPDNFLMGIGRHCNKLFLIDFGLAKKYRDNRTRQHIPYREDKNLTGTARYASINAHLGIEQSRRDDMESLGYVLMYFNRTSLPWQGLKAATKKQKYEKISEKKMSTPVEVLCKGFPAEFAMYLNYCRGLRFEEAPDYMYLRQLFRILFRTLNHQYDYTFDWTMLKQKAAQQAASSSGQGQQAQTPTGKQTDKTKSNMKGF
T1 sequence (Q96SW2 whole entry): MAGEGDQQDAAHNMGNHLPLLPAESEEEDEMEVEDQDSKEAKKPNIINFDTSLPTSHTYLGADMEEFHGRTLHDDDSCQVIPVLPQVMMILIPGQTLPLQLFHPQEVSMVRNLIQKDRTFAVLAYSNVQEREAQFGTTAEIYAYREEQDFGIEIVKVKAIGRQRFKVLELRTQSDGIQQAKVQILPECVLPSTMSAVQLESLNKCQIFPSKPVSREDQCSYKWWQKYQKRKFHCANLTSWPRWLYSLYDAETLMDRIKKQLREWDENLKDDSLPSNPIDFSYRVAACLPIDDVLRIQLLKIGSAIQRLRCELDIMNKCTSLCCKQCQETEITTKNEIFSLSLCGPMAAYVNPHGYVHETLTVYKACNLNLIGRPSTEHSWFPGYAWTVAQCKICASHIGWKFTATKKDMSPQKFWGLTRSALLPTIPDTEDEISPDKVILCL
T1 sequence (Q16531 whole entry partner): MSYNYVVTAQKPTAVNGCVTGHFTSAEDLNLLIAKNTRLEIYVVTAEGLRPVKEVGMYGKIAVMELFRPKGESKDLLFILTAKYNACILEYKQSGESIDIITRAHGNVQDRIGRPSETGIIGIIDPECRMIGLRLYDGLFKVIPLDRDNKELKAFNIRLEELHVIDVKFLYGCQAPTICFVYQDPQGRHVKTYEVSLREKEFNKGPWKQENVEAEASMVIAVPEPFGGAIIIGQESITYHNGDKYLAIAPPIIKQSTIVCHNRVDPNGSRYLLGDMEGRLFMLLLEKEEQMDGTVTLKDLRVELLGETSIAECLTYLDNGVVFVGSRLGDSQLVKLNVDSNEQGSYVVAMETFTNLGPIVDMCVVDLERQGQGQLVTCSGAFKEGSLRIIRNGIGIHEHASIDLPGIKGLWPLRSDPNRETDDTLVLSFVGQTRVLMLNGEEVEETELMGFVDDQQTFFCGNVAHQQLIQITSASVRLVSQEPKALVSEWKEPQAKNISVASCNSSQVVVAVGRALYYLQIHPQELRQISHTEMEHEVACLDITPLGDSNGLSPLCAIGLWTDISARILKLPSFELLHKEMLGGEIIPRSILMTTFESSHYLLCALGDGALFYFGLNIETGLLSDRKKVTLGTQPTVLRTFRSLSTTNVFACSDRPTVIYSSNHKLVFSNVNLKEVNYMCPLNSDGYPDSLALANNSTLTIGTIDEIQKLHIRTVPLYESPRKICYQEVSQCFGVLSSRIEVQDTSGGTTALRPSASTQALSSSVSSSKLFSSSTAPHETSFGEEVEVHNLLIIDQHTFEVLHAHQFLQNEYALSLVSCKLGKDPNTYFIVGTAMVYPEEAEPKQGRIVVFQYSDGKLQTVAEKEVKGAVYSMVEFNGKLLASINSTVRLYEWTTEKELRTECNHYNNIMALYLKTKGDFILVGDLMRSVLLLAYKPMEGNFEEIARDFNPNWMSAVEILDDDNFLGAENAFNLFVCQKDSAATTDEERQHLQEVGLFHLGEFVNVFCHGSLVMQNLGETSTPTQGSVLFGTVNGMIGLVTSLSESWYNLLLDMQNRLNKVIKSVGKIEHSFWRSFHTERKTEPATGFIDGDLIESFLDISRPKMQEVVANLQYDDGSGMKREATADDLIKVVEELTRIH

Structure (SMILES) | IC50 (MV-4-11 cells) [µM] | Dmax at 0.316 µM (CK1α [1]) [%] | DC50 (CK1α [2]) [µM]
COC(C)(C)CN[C@H]1CC[C@@H](N(CCC2CC2)c2cccc3c2CN(C2CCC(=O)NC2=O)C3=O)CC1 (stereo partly shown) [Compound 541A, 3-(4-((2-cyclopropylethyl)((1s,4s)-4-((2-methoxy-2-methylpropyl)amino)cyclohexyl)amino)-1-oxoisoindolin-2-yl)piperidine-2,6-dione] | 0.1 to 1 | 50 to 75 | 
N#CCCCN[C@H]1CC[C@H](N(CCC2CC2)c2cccc3c2CN(C2CCC(=O)NC2=O)C3=O)CC1 (stereo partly shown) [Compound 543, 4-{[(1r,4r)-4-[(2-cyclopropylethyl)[2-(2,6-dioxopiperidin-3-yl)-1-oxo-3H-isoindol-4-yl]amino]cyclohexyl]amino}butanenitrile] | < 0.1 | > 75 | 
CC(CC(F)(F)F)N[C@H]1CC[C@H](N(CCC2CC2)c2cccc3c2CN(C2CCC(=O)NC2=O)C3=O)CC1 (stereo partly shown) [Compound 547, 3-{4-[(2-cyclopropylethyl)[(1r,4r)-4-[(4,4,4-trifluorobutan-2-yl)amino]cyclohexyl]amino]-1-oxo-3H-isoindol-2-yl}piperidine-2,6-dione] | < 0.1 | > 75 | 
C[C@@H](N[C@H]1CC[C@H](N(CCC2CC2)c2cccc3c2CN(C2CCC(=O)NC2=O)C3=O)CC1)C(F)(F)F (stereo partly drawn) [Compound 548, 3-(4-((2-cyclopropylethyl)((1r,4r)-4-(((R)-1,1,1-trifluoropropan-2-yl)amino)cyclohexyl)amino)-1-oxoisoindolin-2-yl)piperidine-2,6-dione] | 0.1 to 1 | < 50 | 
C[C@@H](N[C@H]1CC[C@@H](N(CCC2CC2)c2cccc3c2CN(C2CCC(=O)NC2=O)C3=O)CC1)C(F)(F)F (stereo partly drawn) [Compound 548A, 3-(4-((2-cyclopropylethyl)((1s,4s)-4-(((R)-1,1,1-trifluoropropan-2-yl)amino)cyclohexyl)amino)-1-oxoisoindolin-2-yl)piperidine-2,6-dione] | 0.1 to 1 | 50 to 75 | 
O=C1CCC(N2Cc3c(cccc3N(CC3CC(F)(F)C3)[C@H]3CC[C@@H](NCCC(F)(F)F)CC3)C2=O)C(=O)N1 (stereo partly shown) [Compound 650A, 3-(4-{[(3,3-difluorocyclobutyl)methyl][(1s,4s)-4-[(3,3,3-trifluoropropyl)amino]cyclohexyl]amino}-1-oxo-3H-isoindol-2-yl)piperidine-2,6-dione] |  |  | > 1
O=C1CCC(N2Cc3c(cccc3N(CC3CC(F)(F)C3)[C@H]3CC[C@@H](NCC4(C(F)(F)F)CC4)CC3)C2=O)C(=O)N1 (stereo partly shown) [Compound 655A, 3-(4-{[(3,3-difluorocyclobutyl)methyl][(1s,4s)-4-({[1-(trifluoromethyl)cyclopropyl]methyl}amino)cyclohexyl]amino}-1-oxo-3H-isoindol-2-yl)piperidine-2,6-dione] |  |  | > 1
O=C1CCC(N2Cc3c(cccc3N(CC3CC4(CCC4)C3)[C@H]3CC[C@@H](NCC4(C(F)(F)F)CC4)CC3)C2=O)C(=O)N1 (stereo partly shown) [Compound 656A, 3-(1-oxo-4-{[(1s,4s)-4-({[1-(trifluoromethyl)cyclopropyl]methyl}amino)cyclohexyl]({spiro[3.3]heptan-2-ylmethyl})amino}-3H-isoindol-2-yl)piperidine-2,6-dione; trifluoroacetic acid] |  |  | > 1
CC1(C)CC(CN(c2cccc3c2CN(C2CCC(=O)NC2=O)C3=O)[C@H]2CC[C@@H](NCC3(C(F)(F)F)CC3)CC2)C1 (stereo partly shown) [Compound 657A, 3-(4-{[(3,3-dimethylcyclobutyl)methyl][(1s,4s)-4-({[1-(trifluoromethyl)cyclopropyl]methyl}amino)cyclohexyl]amino}-1-oxo-3H-isoindol-2-yl)piperidine-2,6-dione; bis(trifluoroacetic acid)] |  |  | > 1
O=C1CCC(N2Cc3c(cccc3N(CCC3CC3)[C@H]3CC[C@@H](N[C@H]4CC[C@@H]4C(F)(F)F)CC3)C2=O)C(=O)N1 (stereo partly drawn) [Compound 675A, 3-{4-[(2-cyclopropylethyl)[(1s,4s)-4-{[(1S,2S)-2-(trifluoromethyl)cyclobutyl]amino}cyclohexyl]amino]-1-oxo-3H-isoindol-2-yl}piperidine-2,6-dione; bis(trifluoroacetic acid)] |  |  | 0.1 to 1
COCCN(C)[C@H]1CC[C@@H](N(CCC2CC2)c2cccc3c2CN(C2CCC(=O)NC2=O)C3=O)CC1 (stereo partly shown) [Compound 680A] |  |  | 0.1 to 1
CN(CCCC(F)(F)F)[C@H]1CC[C@@H](N(CCC2CC2)c2cccc3c2CN(C2CCC(=O)NC2=O)C3=O)CC1 (stereo partly shown) [Compound 681A, 3-{4-[(2-cyclopropylethyl)[(1s,4s)-4-[methyl(4,4,4-trifluorobutyl)amino]cyclohexyl]amino]-1-oxo-3H-isoindol-2-yl}piperidine-2,6-dione] |  |  | 0.1 to 1
CN(CCC(F)(F)F)[C@H]1CC[C@@H](N(CCC2CC2)c2cccc3c2CN(C2CCC(=O)NC2=O)C3=O)CC1 (stereo partly shown) [Compound 682A] |  |  | 0.1 to 1

Next, values leading:

IC50 (MV-4-11 cells) [µM] | Dmax at 0.316 µM (CK1α [1]) [%] | DC50 (CK1α [2]) [µM] | Structure (SMILES)
< 0.1 | > 75 |  | COCCN[C@H]1CC[C@H](N(CCC2CC2)c2cccc3c2CN(C2CCC(=O)NC2=O)C3=O)CC1 (stereo partly shown) [Compound 542, 3-{4-[(2-cyclopropylethyl)[(1r,4r)-4-[(2-methoxyethyl)amino]cyclohexyl]amino]-1-oxo-3H-isoindol-2-yl}piperidine-2,6-dione]
< 0.1 | > 75 |  | O=C1CCC(N2Cc3c(cccc3N(CCC3CC3)[C@H]3CC[C@H](NCC(=O)N4CCC4)CC3)C2=O)C(=O)N1 (stereo partly shown) [Compound 546, 3-{4-[(2-cyclopropylethyl)[(1r,4r)-4-{[2-(azetidin-1-yl)-2-oxoethyl]amino}cyclohexyl]amino]-1-oxo-3H-isoindol-2-yl}piperidine-2,6 dione]
 |  | 0.1 to 1 | O=C1CCC(N2Cc3c(cccc3N(CCC3CC3)[C@H]3CC[C@@H](N4CCCC4)CC3)C2=O)C(=O)N1 (stereo partly shown) [Compound 669A]
 |  | 0.1 to 1 | O=C1CCC(N2Cc3c(cccc3N(CCC3CC3)[C@H]3CC[C@@H](N4CCC(F)(F)C4)CC3)C2=O)C(=O)N1 (stereo partly shown) [Compound 670A]
 |  | 0.1 to 1 | O=C1CCC(N2Cc3c(cccc3N(CCC3CC3)[C@H]3CC[C@@H](N4CCC(F)C4)CC3)C2=O)C(=O)N1 (stereo partly shown) [Compound 671A, 3-{4-[(2-cyclopropylethyl)[(1s,4s)-4-(3-fluoropyrrolidin-1-yl)cyclohexyl]amino]-1-oxo-3H-isoindol-2-yl}piperidine-2,6-dione]
 |  | 0.1 to 1 | O=C1CCC(N2Cc3c(cccc3N(CCC3CC3)[C@H]3CC[C@@H](N4CCC(C(F)(F)F)C4)CC3)C2=O)C(=O)N1 (stereo partly shown) [Compound 672A, 3-{4-[(2-cyclopropylethyl)[(1s,4s)-4-[3-(trifluoromethyl)pyrrolidin-1-yl]cyclohexyl]amino]-1-oxo-3H-isoindol-2-yl}piperidine-2,6-dione; trifluoroacetic acid]
 |  | 0.1 to 1 | O=C1CCC(N2Cc3c(cccc3N(CCC3CC3)[C@H]3CC[C@@H](N4CC(C(F)(F)F)C4)CC3)C2=O)C(=O)N1 (stereo partly shown) [Compound 673A]
 |  | 0.1 to 1 | O=C1CCC(N2Cc3c(cccc3N(CCC3CC3)[C@H]3CC[C@@H](N4CCOCC4)CC3)C2=O)C(=O)N1 (stereo partly shown) [Compound 674A, 3-{4-[(2-cyclopropylethyl)[(1s,4s)-4-(morpholin-4-yl)cyclohexyl]amino]-1-oxo-3H-isoindol-2-yl}piperidine-2,6-dione]

Reference: patent US20250188069A1, “COMPOUNDS AND METHODS FOR DEGRADING CASEIN KINASE 1 ALPHA” (PIN THERAPEUTICS, INC., priority 2022, published 2025)
